Experiments:
[1] = Protein binding in anesthetized cynomolgus monkey plasma after 5 mins postinjection; assay type: ADME, organism-based, Macaca fascicularis; details: read-out: PPB (converted)
[2] = Drug uptake in awake rhesus monkey occipital lobe after 65 mins postinjection; assay type: ADME, organism-based, Macaca mulatta; details: in vivo
[3] = Drug uptake in awake rhesus monkey cerebellum after 0.3 mins postinjection; assay type: ADME, organism-based, Macaca mulatta; details: in vivo, 0.005 h
[4] = Drug uptake in anesthetized cynomolgus monkey brain frontal lobe after 207.5 mins postinjection; assay type: ADME, organism-based, Macaca fascicularis; details: in vivo

## O=C(OCC[18F])C1C2CCC(CC1c1cccc(/C=C\I)c1)N2 (centres undefined)
[1]
  fraction unbound at 5 min: 0.925

## O=C(OCC[18F])C1C2CCC(CC1c1ccc(/C=C\I)cc1)N2 (centres undefined)
[2]
  Drug uptake: 2.71
[3]
  Drug uptake: 0.01

## O=C(OCCC[18F])C1C2CCC(CC1c1cccc(/C=C\Br)c1)N2 (centres undefined)
[4]
  Drug uptake: 2.03

— ChEMBL document CHEMBL1151757, “Synthesis, radiosynthesis, and biological evaluation of fluorine-18-labeled 2beta-carbo(fluoroalkoxy)-3beta-(3'-((Z)-2-haloethenyl)phenyl)nortropanes: candidate radioligands for in vivo imaging of the serotonin transporter with positron emission tomography” (J Med Chem, 2008)
